Measured values from article PMC4967369 (Xenobiotica; the fate of foreign compounds in biological …, 2015).
Like-named read-outs stand apart in the source and are kept apart here.

Assays:
[1] = dog, in vivo
[2] = in vivo
[3] = for Urinary concentration, Unconjugated: without enzyme treatment, normalized to creatinine
[4] = for % Glucuronides: percentage of free and conjugated isoflavones that are glucuronide; for Urinary concentration, Unconjugated: without enzyme treatment, normalized to creatinine
[5] = system: dog liver microsomes; assay: Isoflavone glucuronidation assay, dog liver microsomes; type: in vitro ADME; conditions: pooled dog liver microsomes (n=16)
[6] = as above; type: in vitro ADME; conditions: mixed-breed, dog, pH 7.5
[7] = system: liver microsomes from 13 different species; assay: Isoflavone glucuronidation by liver microsomes from 13 different species; type: in vitro ADME, 13 species
[8] = system: cat liver microsomes; assay: Isoflavone glucuronidation assay, cat liver microsomes; type: in vitro ADME; conditions: for Vmax, 7-OH-glucuronidation: pooled cat liver microsomes (n=5); for Rank of cat liver glucuronidation rate among species: pooled liver microsomes, 35 µM substrate, 13 species compared
[9] = as above; type: in vitro ADME; conditions: domestic short-hair, cat, pH 7.5
[10] = system: human liver microsomes; assay: Isoflavone glucuronidation assay, human liver microsomes; type: in vitro ADME; conditions: pooled human liver microsomes (n=48)
[11] = as above; type: in vitro ADME; conditions: human, pH 7.5
[12] = system: ferret liver microsomes; assay: Estradiol glucuronidation assay, ferret liver microsomes; type: in vitro ADME; conditions: ferret livers, 100 µM substrate
[13] = system: mongoose liver microsomes; assay: Estradiol glucuronidation assay, mongoose liver microsomes; type: in vitro ADME; conditions: mongoose livers, 100 µM substrate
[14] = system: cat liver microsomes; assay: Estradiol glucuronidation assay, cat liver microsomes; type: in vitro ADME; conditions: cat livers, 100 µM substrate
[15] = pooled liver microsomes, 35 µM substrate

## CC(C(=O)c1ccc(O)cc1O)c1ccc(O)cc1 (stereo not drawn) [O-desmethylangolensin]
[1]
  Detection of metabolite in urine: not detected
[2]
  Detection of metabolite in urine: not detected

## COc1cc2c(=O)c(-c3ccc(O)cc3)coc2cc1O [Glycitein, glycitein]
[3]; pooled dog urine (n=10), mean
  Urinary concentration, Unconjugated: 9 pmoles / mg creatinine

## O=C1c2c(O)cc(O)cc2OCC1c1ccc(O)cc1 (stereo not drawn) [Dihydrogenistein, dihydrogenistein]
[4]; pooled cat urine (n=18), after bovine liver β-glucuronidase treatment, mean
  Urinary concentration, Glucuronides: 0 pmoles / mg creatinine
[4]; pooled cat urine (n=18)
  % Glucuronides: 0%
[4]; pooled cat urine (n=18), listed as dihydrogenistein
  % Glucuronides: undetectable
[4]; pooled cat urine (n=18), sum of free and conjugated concentrations, mean
  Urinary concentration, Total: 2998 pmoles / mg creatinine
[4]; pooled cat urine (n=18), mean
  Urinary concentration, Unconjugated: 0 pmoles / mg creatinine
[3]; pooled dog urine (n=10), after bovine liver β-glucuronidase treatment, mean
  Urinary concentration, Glucuronides: 631 pmoles / mg creatinine
[3]; pooled dog urine (n=10), percentage of free and conjugated isoflavones that are glucuronide
  % Glucuronides: 33%
[3]; pooled dog urine (n=10), sum of free and conjugated concentrations, mean
  Urinary concentration, Total: 1919 pmoles / mg creatinine
[3]; pooled dog urine (n=10), mean
  Urinary concentration, Unconjugated: 0 pmoles / mg creatinine

## O=c1c(-c2ccc(O)cc2)coc2cc(O)cc(O)c12 [Genistein, genistein]
[5]
  Vmax, 7-OH-glucuronidation: 5.13 ± 0.2 nmoles/min/mg protein
[6]
  Km: 15.3 ± 2.4 µM
[7]; search for additional HPLC peaks with the same mass spectrum
  Glucuronidation at the 5-OH position: no evidence for glucuronidation at that site
[8]
  Vmax, 7-OH-glucuronidation: 2.15 ± 0.1 nmoles/min/mg protein
  Rank of cat liver glucuronidation rate among species: within the lowest three out of 13 species
[9]
  Km: 10.3 ± 2.5 µM
[10]
  Vmax, 7-OH-glucuronidation: 1.60 ± 0.07 nmoles/min/mg protein
[11]
  Km: 11.7 ± 2.4 µM
[4]; pooled cat urine (n=18), mean
  Urinary concentration, Unconjugated: 29 pmoles / mg creatinine
[3]; pooled dog urine (n=10), mean
  Urinary concentration, Unconjugated: 31 pmoles / mg creatinine

## O=c1c(-c2ccc(O)cc2)coc2cc(O)ccc12 [Daidzein, daidzein]
[5]
  Vmax, 7-OH-glucuronidation: 8.10 ± 0.1 nmoles/min/mg protein
[6]; pooled dog liver microsomes
  Km: 55.4 ± 3.8 µM
[7]; 35 µM, pH 7.5
  4'-OH-glucuronidation, detection: could not be measured in five of the 13 species
[8]
  Vmax, 7-OH-glucuronidation: 1.61 ± 0.06 nmoles/min/mg protein
  Rank of cat liver glucuronidation rate among species: within the lowest three out of 13 species
[9]; pooled cat liver microsomes
  Km: 41.9 ± 6.6 µM
[10]
  Vmax, 7-OH-glucuronidation: 1.30 ± 0.05 nmoles/min/mg protein
[11]; pooled human liver microsomes
  Km: 26.6 ± 5.1 µM

## Oc1ccc(C2=Cc3ccc(O)cc3OC2)cc1 [dehydroequol]
[4]; cat urine, before or after treatment with deconjugation enzymes
  Detection of metabolite in urine: not detected
[3]; dog urine, before or after treatment with deconjugation enzymes
  Detection of metabolite in urine: not detected

## C[C@]12CC[C@@H]3c4ccc(O)cc4CC[C@H]3[C@@H]1CC[C@@H]2O [estradiol, β-estradiol]
[12]
  Rank of estradiol glucuronidation among 13 species: third lowest
[13]
  Rank of estradiol glucuronidation among 13 species: fifth
[14]
  Rank of estradiol glucuronidation among 13 species: sixth lowest

## Oc1ccc([C@H]2COc3cc(O)ccc3C2)cc1 [Equol, equol]
[5]
  Vmax, 7-OH-glucuronidation: 14.3 ± 0.6 nmoles/min/mg protein
[6]; pooled dog liver microsomes
  Km: 32.6 ± 6.9 µM
[7]; [15]
  4'-OH-glucuronidation, detection: not detected in any of the species evaluated
  7-OH-glucuronidation, detection: detected in all species livers’ evaluated except for glucuronidation of equol by mongoose liver
[8]
  Vmax, 7-OH-glucuronidation: 20.4 ± 1.4 nmoles/min/mg protein
  Rank of cat liver glucuronidation rate among species: within the lowest three out of 13 species
[9]; pooled cat liver microsomes
  Km: 132 ± 26 µM
[10]
  Vmax, 7-OH-glucuronidation: 17.4 ± 0.7 nmoles/min/mg protein
[11]; pooled human liver microsomes
  Km: 31.8 ± 5.1 µM
[3]; individual dog urine samples with detectable equol (three of ten)
  Equol to daidzein ratio: 0.004–0.017
[3]; pooled dog urine (n=10), mean
  Urinary concentration, Unconjugated: 0 pmoles / mg creatinine

## CC(C(=O)c1c(O)cc(O)cc1O)c1ccc(O)cc1 (stereo not drawn) [6-hydroxy-O-desmethylangolensin]
[1]
  Detection of metabolite in urine: not detected
[2]
  Detection of metabolite in urine: not detected
